Source: PubChem BioAssay (NCI)
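Each compound was tested at five concentrations against cells in 96-well plates for 48 hours. GI50 marks 50% less growth. At the TGI there is no net growth.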

Key:
Experiment in all cases: NCI tumour cell line growth inhibition, 48 h
OVCAR-8 ovarian = system: OVCAR-8 ovarian
OVCAR-5 ovarian = system: OVCAR-5 ovarian
HCT-116 colon = system: HCT-116 colon
T-47D breast = system: T-47D breast
A549 NSCLC = system: A549 NSCLC
RPMI-8226 leukemia = system: RPMI-8226 leukemia
UO-31 renal = system: UO-31 renal
UACC-257 melanoma = system: UACC-257 melanoma
HL-60(TB) leukemia = system: HL-60(TB) leukemia
M14 melanoma = system: M14 melanoma
RXF 393 renal = system: RXF 393 renal
HT29 colon = system: HT29 colon
SN12C renal = system: SN12C renal
NCI-H226 lung = system: NCI-H226 lung
CAKI-1 renal = system: CAKI-1 renal
DU-145 prostate = system: DU-145 prostate
K-562 leukemia = system: K-562 leukemia
NCI-H460 lung = system: NCI-H460 lung
NCI-H522 lung = system: NCI-H522 lung
NCI/ADR-RES ovarian = system: NCI/ADR-RES ovarian
SNB-19 CNS = system: SNB-19 CNS
COLO 205 colon = system: COLO 205 colon
HOP-62 NSCLC = system: HOP-62 NSCLC
IGROV1 ovarian = system: IGROV1 ovarian
KM12 colon = system: KM12 colon
SK-MEL-28 melanoma = system: SK-MEL-28 melanoma
U251 CNS = system: U251 CNS
LOX IMVI melanoma = system: LOX IMVI melanoma
SNB-75 CNS = system: SNB-75 CNS
SW-620 colon = system: SW-620 colon
TK-10 renal = system: TK-10 renal
786-0 renal = system: 786-0 renal
SK-OV-3 ovarian = system: SK-OV-3 ovarian
SF-539 CNS = system: SF-539 CNS
SF-295 CNS = system: SF-295 CNS
EKVX NSCLC = system: EKVX NSCLC
CCRF-CEM leukemia = system: CCRF-CEM leukemia
SK-MEL-5 melanoma = system: SK-MEL-5 melanoma
PC-3 prostate = system: PC-3 prostate
HCT-15 colon = system: HCT-15 colon
SR leukemia = system: SR leukemia
SF-268 CNS = system: SF-268 CNS
HOP-92 NSCLC = system: HOP-92 NSCLC
HS 578T breast = system: HS 578T breast
HCC-2998 colon = system: HCC-2998 colon
OVCAR-3 ovarian = system: OVCAR-3 ovarian
UACC-62 melanoma = system: UACC-62 melanoma
MOLT-4 leukemia = system: MOLT-4 leukemia
SK-MEL-2 melanoma = system: SK-MEL-2 melanoma
ACHN renal = system: ACHN renal
BT-549 breast = system: BT-549 breast
OVCAR-4 ovarian = system: OVCAR-4 ovarian
MALME-3M melanoma = system: MALME-3M melanoma
MCF7 breast = system: MCF7 breast
NCI-H23 lung = system: NCI-H23 lung
MDA-MB-231 breast = system: MDA-MB-231 breast
MDA-MB-435 = system: MDA-MB-435

CC(C)=CCc1c2c(c(O)c3c1O[C@]14C(=C[C@@H]5C[C@H]1C(C)(C)O[C@@]4(C/C=C(/C)C(=O)O)C5=O)C3=O)CC(O)C(C)(C)O2 (some centres undefined)
GI50 (OVCAR-8 ovarian): 18 µM | TGI (OVCAR-8 ovarian): 45.1 µM | GI50 (OVCAR-5 ovarian): 28.6 µM | TGI (OVCAR-5 ovarian): 74 µM | GI50 (HCT-116 colon): 13.2 µM | TGI (HCT-116 colon): 26.7 µM | GI50 (T-47D breast): 19 µM | TGI (T-47D breast): 58.8 µM | GI50 (A549 NSCLC): 31 µM | TGI (A549 NSCLC): 78.1 µM | GI50 (RPMI-8226 leukemia): 10.1 µM | TGI (RPMI-8226 leukemia): 53.6 µM | GI50 (UO-31 renal): 14.8 µM | TGI (UO-31 renal): 32.7 µM | GI50 (UACC-257 melanoma): 19.4 µM | TGI (UACC-257 melanoma): 43.8 µM | GI50 (HL-60(TB) leukemia): 27.9 µM | TGI (HL-60(TB) leukemia): 68 µM | GI50 (M14 melanoma): 14.7 µM | TGI (M14 melanoma): 34.7 µM | GI50 (RXF 393 renal): 19 µM | TGI (RXF 393 renal): 38.2 µM | GI50 (HT29 colon): 22 µM | TGI (HT29 colon): 62.4 µM | GI50 (SN12C renal): 18.9 µM | TGI (SN12C renal): 51 µM | GI50 (NCI-H226 lung): 23.8 µM | TGI (NCI-H226 lung): 72.7 µM | GI50 (CAKI-1 renal): 19.9 µM | TGI (CAKI-1 renal): 57 µM | GI50 (DU-145 prostate): 20.8 µM | TGI (DU-145 prostate): 48.1 µM | GI50 (K-562 leukemia): 11.6 µM | TGI (K-562 leukemia): > 100 µM | GI50 (NCI-H460 lung): 16.7 µM | TGI (NCI-H460 lung): 39.6 µM | GI50 (NCI-H522 lung): 14.9 µM | TGI (NCI-H522 lung): 28.4 µM | GI50 (NCI/ADR-RES ovarian): 30.9 µM | TGI (NCI/ADR-RES ovarian): > 100 µM | GI50 (SNB-19 CNS): 17.7 µM | TGI (SNB-19 CNS): 40.4 µM | GI50 (COLO 205 colon): 20.2 µM | TGI (COLO 205 colon): 43.4 µM | GI50 (HOP-62 NSCLC): 20.6 µM | TGI (HOP-62 NSCLC): 42.5 µM | GI50 (IGROV1 ovarian): 20.3 µM | TGI (IGROV1 ovarian): 64.1 µM | GI50 (KM12 colon): 18.6 µM | TGI (KM12 colon): 39.6 µM | GI50 (SK-MEL-28 melanoma): 19.7 µM | TGI (SK-MEL-28 melanoma): 47.6 µM | GI50 (U251 CNS): 15 µM | TGI (U251 CNS): 30.1 µM | GI50 (LOX IMVI melanoma): 11.2 µM | TGI (LOX IMVI melanoma): 25.2 µM | GI50 (SNB-75 CNS): 21.3 µM | TGI (SNB-75 CNS): 64.1 µM | GI50 (SW-620 colon): 13.2 µM | TGI (SW-620 colon): 33.2 µM | GI50 (TK-10 renal): 23.8 µM | TGI (TK-10 renal): 41.1 µM | GI50 (786-0 renal): 19.7 µM | TGI (786-0 renal): 38 µM | GI50 (SK-OV-3 ovarian): 40.6 µM | TGI (SK-OV-3 ovarian): > 100 µM | GI50 (SF-539 CNS): 20.7 µM | TGI (SF-539 CNS): 46.5 µM | GI50 (SF-295 CNS): 27.9 µM | TGI (SF-295 CNS): 87 µM | GI50 (EKVX NSCLC): 21.6 µM | TGI (EKVX NSCLC): 69.8 µM | GI50 (CCRF-CEM leukemia): 5.76 µM | TGI (CCRF-CEM leukemia): 40.9 µM | GI50 (SK-MEL-5 melanoma): 15 µM | TGI (SK-MEL-5 melanoma): 30.3 µM | GI50 (PC-3 prostate): 19.8 µM | TGI (PC-3 prostate): 49.1 µM | GI50 (HCT-15 colon): 22.6 µM | TGI (HCT-15 colon): > 100 µM | GI50 (SR leukemia): 7.8 µM | TGI (SR leukemia): > 100 µM | GI50 (SF-268 CNS): 14.7 µM | TGI (SF-268 CNS): 34.5 µM | GI50 (HOP-92 NSCLC): 22.1 µM | TGI (HOP-92 NSCLC): 48.9 µM | GI50 (HS 578T breast): 14.1 µM | TGI (HS 578T breast): 86 µM | GI50 (HCC-2998 colon): 17.7 µM | TGI (HCC-2998 colon): 32.9 µM | GI50 (OVCAR-3 ovarian): 14.5 µM | TGI (OVCAR-3 ovarian): 28 µM | GI50 (UACC-62 melanoma): 15.5 µM | TGI (UACC-62 melanoma): 34.8 µM | GI50 (MOLT-4 leukemia): 17.3 µM | TGI (MOLT-4 leukemia): 65.1 µM | GI50 (SK-MEL-2 melanoma): 16.6 µM | TGI (SK-MEL-2 melanoma): 34.7 µM | GI50 (ACHN renal): 27.7 µM | TGI (ACHN renal): 85.7 µM | GI50 (BT-549 breast): 12.4 µM | TGI (BT-549 breast): 26.4 µM | GI50 (OVCAR-4 ovarian): 24.4 µM | TGI (OVCAR-4 ovarian): 86.8 µM | GI50 (MALME-3M melanoma): 21.9 µM | TGI (MALME-3M melanoma): 52.5 µM | GI50 (MCF7 breast): 9.1 µM | TGI (MCF7 breast): 52.4 µM | GI50 (NCI-H23 lung): 17.7 µM | TGI (NCI-H23 lung): 48.4 µM | GI50 (MDA-MB-231 breast): 26.5 µM | TGI (MDA-MB-231 breast): 92.2 µM | GI50 (MDA-MB-435): 18.9 µM | TGI (MDA-MB-435): 51.8 µM
